#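 These data come from cells grown in 96-well plates and exposed to compound for 48 hours at five concentrations. Here, GI50 denotes the concentration required for 50% inhibition of growth. TGI is the concentration that stops growth completely.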
# Assays:
# Assay in all cases: NCI anticancer screen, dose series, 48 h
# 786-0 renal = system: 786-0 renal
# A498 renal = system: A498 renal
# A549 NSCLC = system: A549 NSCLC
# ACHN renal = system: ACHN renal
# BT-549 breast = system: BT-549 breast
# CAKI-1 renal = system: CAKI-1 renal
# CCRF-CEM leukemia = system: CCRF-CEM leukemia
# COLO 205 colon = system: COLO 205 colon
# DU-145 prostate = system: DU-145 prostate
# EKVX NSCLC = system: EKVX NSCLC
# HCC-2998 colon = system: HCC-2998 colon
# HCT-116 colon = system: HCT-116 colon
# HCT-15 colon = system: HCT-15 colon
# HL-60(TB) leukemia = system: HL-60(TB) leukemia
# HOP-62 NSCLC = system: HOP-62 NSCLC
# HOP-92 NSCLC = system: HOP-92 NSCLC
# HS 578T breast = system: HS 578T breast
# HT29 colon = system: HT29 colon
# K-562 leukemia = system: K-562 leukemia
# KM12 colon = system: KM12 colon
# LOX IMVI melanoma = system: LOX IMVI melanoma
# M14 melanoma = system: M14 melanoma
# MALME-3M melanoma = system: MALME-3M melanoma
# MCF7 breast = system: MCF7 breast
# MDA-MB-231 breast = system: MDA-MB-231 breast
# MDA-MB-435 = system: MDA-MB-435
# MOLT-4 leukemia = system: MOLT-4 leukemia
# NCI-H226 lung = system: NCI-H226 lung
# NCI-H23 lung = system: NCI-H23 lung
# NCI-H460 lung = system: NCI-H460 lung
# NCI-H522 lung = system: NCI-H522 lung
# NCI/ADR-RES ovarian = system: NCI/ADR-RES ovarian
# OVCAR-3 ovarian = system: OVCAR-3 ovarian
# OVCAR-4 ovarian = system: OVCAR-4 ovarian
# OVCAR-5 ovarian = system: OVCAR-5 ovarian
# OVCAR-8 ovarian = system: OVCAR-8 ovarian
# PC-3 prostate = system: PC-3 prostate
# RPMI-8226 leukemia = system: RPMI-8226 leukemia
# RXF 393 renal = system: RXF 393 renal
# SF-268 CNS = system: SF-268 CNS
# SF-295 CNS = system: SF-295 CNS
# SF-539 CNS = system: SF-539 CNS
# SK-MEL-2 melanoma = system: SK-MEL-2 melanoma
# SK-MEL-28 melanoma = system: SK-MEL-28 melanoma
# SK-MEL-5 melanoma = system: SK-MEL-5 melanoma
# SK-OV-3 ovarian = system: SK-OV-3 ovarian
# SN12C renal = system: SN12C renal
# SNB-19 CNS = system: SNB-19 CNS
# SNB-75 CNS = system: SNB-75 CNS
# SW-620 colon = system: SW-620 colon
# T-47D breast = system: T-47D breast
# TK-10 renal = system: TK-10 renal
# U251 CNS = system: U251 CNS
# UACC-62 melanoma = system: UACC-62 melanoma
# UO-31 renal = system: UO-31 renal
structure (smiles),measurement,setting,value
Cc1c2cnccc2c(C)c2c1c1cc(O)ccc1n2C(C)C,GI50,786-0 renal,1700 nM
same,TGI,786-0 renal,4530 nM
same,GI50,A498 renal,2000 nM
same,TGI,A498 renal,13300 nM
same,GI50,A549 NSCLC,744 nM
same,TGI,A549 NSCLC,8170 nM
same,GI50,ACHN renal,285 nM
same,TGI,ACHN renal,1770 nM
same,GI50,BT-549 breast,1110 nM
same,TGI,BT-549 breast,2730 nM
same,GI50,CAKI-1 renal,388 nM
same,TGI,CAKI-1 renal,5240 nM
same,GI50,CCRF-CEM leukemia,1330 nM
same,TGI,CCRF-CEM leukemia,5810 nM
same,GI50,COLO 205 colon,2360 nM
same,TGI,COLO 205 colon,6020 nM
same,GI50,DU-145 prostate,688 nM
same,TGI,DU-145 prostate,7060 nM
same,GI50,EKVX NSCLC,846 nM
same,TGI,EKVX NSCLC,2410 nM
same,GI50,HCC-2998 colon,1550 nM
same,TGI,HCC-2998 colon,4940 nM
same,GI50,HCT-116 colon,964 nM
same,TGI,HCT-116 colon,6560 nM
same,GI50,HCT-15 colon,440 nM
same,TGI,HCT-15 colon,4200 nM
same,GI50,HL-60(TB) leukemia,420 nM
same,TGI,HL-60(TB) leukemia,3130 nM
same,GI50,HOP-62 NSCLC,1600 nM
same,TGI,HOP-62 NSCLC,4740 nM
same,GI50,HOP-92 NSCLC,2110 nM
same,TGI,HOP-92 NSCLC,7280 nM
same,GI50,HS 578T breast,1230 nM
same,TGI,HS 578T breast,4550 nM
same,GI50,HT29 colon,3110 nM
same,TGI,HT29 colon,11500 nM
same,GI50,K-562 leukemia,1020 nM
same,TGI,K-562 leukemia,5600 nM
same,GI50,KM12 colon,570 nM
same,TGI,KM12 colon,9870 nM
same,GI50,LOX IMVI melanoma,470 nM
same,TGI,LOX IMVI melanoma,1900 nM
same,GI50,M14 melanoma,678 nM
same,TGI,M14 melanoma,2340 nM
same,GI50,MALME-3M melanoma,756 nM
same,TGI,MALME-3M melanoma,2580 nM
same,GI50,MCF7 breast,1370 nM
same,TGI,MCF7 breast,4820 nM
same,GI50,MDA-MB-231 breast,1510 nM
same,TGI,MDA-MB-231 breast,7580 nM
same,GI50,MDA-MB-435,1040 nM
same,TGI,MDA-MB-435,2290 nM
same,GI50,MOLT-4 leukemia,289 nM
same,TGI,MOLT-4 leukemia,1260 nM
same,GI50,NCI-H226 lung,2820 nM
same,TGI,NCI-H226 lung,11600 nM
same,GI50,NCI-H23 lung,721 nM
same,TGI,NCI-H23 lung,3830 nM
same,GI50,NCI-H460 lung,361 nM
same,TGI,NCI-H460 lung,1560 nM
same,GI50,NCI-H522 lung,475 nM
same,TGI,NCI-H522 lung,2540 nM
same,GI50,NCI/ADR-RES ovarian,1140 nM
same,TGI,NCI/ADR-RES ovarian,4230 nM
same,GI50,OVCAR-3 ovarian,2040 nM
same,TGI,OVCAR-3 ovarian,6860 nM
same,GI50,OVCAR-4 ovarian,1310 nM
same,TGI,OVCAR-4 ovarian,7380 nM
same,GI50,OVCAR-5 ovarian,2420 nM
same,TGI,OVCAR-5 ovarian,9460 nM
same,GI50,OVCAR-8 ovarian,972 nM
same,TGI,OVCAR-8 ovarian,6180 nM
same,GI50,PC-3 prostate,1120 nM
same,TGI,PC-3 prostate,3710 nM
same,GI50,RPMI-8226 leukemia,1050 nM
same,TGI,RPMI-8226 leukemia,3190 nM
same,GI50,RXF 393 renal,935 nM
same,TGI,RXF 393 renal,2390 nM
same,GI50,SF-268 CNS,1180 nM
same,TGI,SF-268 CNS,3620 nM
same,GI50,SF-295 CNS,1700 nM
same,TGI,SF-295 CNS,5350 nM
same,GI50,SF-539 CNS,1320 nM
same,TGI,SF-539 CNS,2900 nM
same,GI50,SK-MEL-2 melanoma,797 nM
same,TGI,SK-MEL-2 melanoma,2580 nM
same,GI50,SK-MEL-28 melanoma,1230 nM
same,TGI,SK-MEL-28 melanoma,2960 nM
same,GI50,SK-MEL-5 melanoma,1350 nM
same,TGI,SK-MEL-5 melanoma,3000 nM
same,GI50,SK-OV-3 ovarian,709 nM
same,TGI,SK-OV-3 ovarian,5550 nM
same,GI50,SN12C renal,647 nM
same,TGI,SN12C renal,6060 nM
same,GI50,SNB-19 CNS,1760 nM
same,TGI,SNB-19 CNS,10900 nM
same,GI50,SNB-75 CNS,1200 nM
same,TGI,SNB-75 CNS,2460 nM
same,GI50,SW-620 colon,408 nM
same,TGI,SW-620 colon,3270 nM
same,GI50,T-47D breast,1980 nM
same,TGI,T-47D breast,6270 nM
same,GI50,TK-10 renal,3310 nM
same,TGI,TK-10 renal,8550 nM
same,GI50,U251 CNS,1770 nM
same,TGI,U251 CNS,6510 nM
same,GI50,UACC-62 melanoma,1370 nM
same,TGI,UACC-62 melanoma,4280 nM
same,GI50,UO-31 renal,785 nM
same,TGI,UO-31 renal,5210 nM
